Data as given in patent US6313096A, “Inhibitors of trypsin-like enzymes” (Trigen Limited, priority 2000, dated 2001).

Key:
thrombin [1] = molecular target: T1, thrombin (Homo sapiens, UniProt P00734); assay: thrombin time determination; format: biochemical
Procedure: The activity of the product as a thrombin inhibitor is measured by determination of the thrombin time essentially as described in European Patent Application 293 881, page 51. Using a 1 micromolar concentration of inhibitor, a mean thrombin time of 114 seconds is found, compared with 16 seconds in the absence of inhibitor.

thrombin [2] = molecular target: T1, thrombin; conditions: reversible and irreversible inhibitors of thrombin; cited from earlier work

Row | thrombin inhibitor (in words) (thrombin [1]) | mean thrombin time (thrombin [1]; 1 micromolar concentration of inhibitor, 16 seconds in the absence of inhibitor) | Compound | inhibition in vitro (thrombin [2])
1 | strong thrombin inhibitor | 114 s | Z-D-Phe-Pro-BOMe-OPin [formula XII] | 
2 |  |  | NC(N)=NCCC[C@H](NC(=O)[C@@H]1CCCN1C(=O)[C@H](N)Cc1ccccc1)C(=O)CCl [D-Phe-Pro-Arg-CH2 Cl] | ~10^-8 M
3 |  |  | N=C(N)NCCC[C@@H](C=O)NC(=O)[C@@H]1CCCN1C(=O)[C@H](N)Cc1ccccc1 [D-Phe-Pro-Arginal] | ~10^-8 M
